The source of these data is patent publication US7655447B2, “ZSIG33-like polynucleotides” (ZymoGenetics, Inc., priority 2000, dated 2010).

Molecules are shown by their SMILES.

In the experiment the test system is antral portion of the stomach. The experiment in a line: Gastric contractility: distance between transducing crystals on the antral stomach. Type of experiment: in vivo, Sprague-Dawley rats. The settings on record: urethane-anesthetized rats. The source says:
Two male Sprague-Dawley rats, approximately 12 weeks old (Harlan, Indianapolis, Ind.) are anesthetized with urethane and their stomachs are exposed through a small abdominal incision. Two 2.4 mm transducing crystals (Sonometrics, Ontario, Canada) are placed on the antral portion of the stomach such that circular contractions could be monitored as a change in the distance between the two crystals. The crystals are attached with VETBOND TISSUE ADHESIVE (3M, St. Paul, Minn.). […] The amplitude of the NE-induced decrease is approximately 50% of the acetylcholine-induced increase in distance. Both responses are transient. A negative control of 10 μl of phosphate buffer solution (PBS) applied topically between the crystals has no effect. […] The ZS33LP at 1 μg induces a sustained, rhythmic increase and decrease in crystal distance.

For `NC[C@H](O)c1ccc(O)c(O)c1` [norepinephrine], the “change in the distance between the two crystals (circular contractions)” value (10 μl of 1 μM applied topically to the stomach between the crystals) is “reduction in the distance between the two crystals”. In addition, the “amplitude of the NE-induced decrease relative to the acetylcholine-induced increase in distance” value (10 μl of 1 μM applied topically) was “approximately 50%”.
